Assay results taken from paper PMC11681159, “Bee pollen peptides as potent tyrosinase inhibitors with anti-melanogenesis effects in murine b16f10 melanoma cells and zebrafish embryos” (Scientific Reports, 2024).
Entries after “also recorded” stand apart in the source; their conditions may differ. Ends that are not written are not given here.

Assays:
Tyr [1] = test: Western blot, TYR protein; assay type: cell-based, mouse; conditions: B16F10, 48 h
Experimental: Western blot analysis was performed to measure TYR (TYR, TRP-1, TRP-2, and MITF) in B16F10 cells in line with the approach discussed by Yoon et al.[65]. whereby the B16F10 cells underwent treatment for 48 h using various peptide amounts ([…]) and also with arbutin (0.2 mM). Following this process, the cells were lysed using NP40 Cell Lysis Buffer with protease inhibitor cocktail supplementation. Next, 12% sodium dodecyl sulfate poly-acrylamide (SDS-PAGE) gel electrophoresis was used to extract equal quantities of protein from each sample, with subsequent transfer to PVD (polyvinylidene fluoride) membranes (Millipore, Bedford, MA, USA). The membrane was blocked overnight with 3% skimmed milk (w/v) in TBST with 0.5% Tween 20 at 4 °C and then washed thrice in TBST. The rabbit polyclonal anti-TYR antibody (dilution 1:1000), anti-TRP-1 antibody (dilution 1:1000), anti-TRP-2 antibody and anti-MITF antibody (dilution 1:1000) obtained from Abcam (USA), were used respectively to detect the TYR, TRP-1, TRP-2, and MITF bands. After thrice washing again in TBST, secondary antibodies (dilution 1:5000) were added to the membranes for 1 h of incubation at room temperature before another triplicate washing in TBST. […] The software facilitated the identification and quantification of protein expression levels.

mushroom TYR = molecular target: T1, mushroom TYR (Agaricus bisporus, UniProt C7FF04); test: Kinetic study, Lineweaver-Burk, mono-phenolase; assay type: biochemical; conditions: Km rose, Vmax unchanged
T1 construct: purchased Sigma-Aldrich, Merck T3824
T1 sequence (C7FF04 2-392): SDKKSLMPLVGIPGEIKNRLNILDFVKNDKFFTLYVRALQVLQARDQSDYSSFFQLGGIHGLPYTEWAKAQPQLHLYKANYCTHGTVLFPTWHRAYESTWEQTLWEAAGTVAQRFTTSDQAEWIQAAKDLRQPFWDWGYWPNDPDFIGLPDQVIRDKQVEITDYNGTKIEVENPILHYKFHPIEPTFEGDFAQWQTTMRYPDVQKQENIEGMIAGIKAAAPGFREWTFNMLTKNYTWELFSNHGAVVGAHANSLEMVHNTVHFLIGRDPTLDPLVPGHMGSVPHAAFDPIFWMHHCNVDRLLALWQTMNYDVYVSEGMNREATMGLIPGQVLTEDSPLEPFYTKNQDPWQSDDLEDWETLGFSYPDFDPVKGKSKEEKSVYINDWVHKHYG
Experimental: It is necessary to determine the type of TYR inhibitory activity which takes place. This can be achieved through a modified version of an assay described by Feng et al.[39]. The process starts by dissolving the peptide VY-9 in deionized water at various concentrations (0, 0.25, 0.5, and 1 mM). Each VY-9 peptide sample at each concentration (35 µL) was combined 15 µL of mushroom TYR (333 U/mL in 50 mM PBS pH 6.8) prior to 5 min of incubation at 25 °C. Subsequently, various concentrations of substrate were introduced, namely 0–2 mM L-tyrosine in the case of mono-phenolase, and 0–12 mM L-DOPA for di-phenolase. These new mixtures underwent further incubation for 30 min at the same temperature of 25 °C. Upon completion, a spectrophotometer was used to measure the absorbance and determine the inhibitory activity at 490 nm. Lineweaver-Burk plots were then used in calculating Km and Vmax, the kinetic parameters. Km is indicated by the intersection point on the X-axis while Vmax is indicated by the intersection point on the Y-axis in the mode of TYR inhibition under examination. Construction of the plots linked the substrate concentration reciprocal on the X-axis and the absorbance reciprocal (at 490 nm) on the Y-axis, to represent the starting rate for the enzymatic reaction. […]

B16F10 melanoma cells = test: Cell viability assay (MTT); assay type: cell-based, mouse; conditions: 72 h
Experimental: To perform the assay to establish cell viability, a 96-well plate was used for the seeding of the B16F10 cells at 5 × 10^3 cells/well. The cells were then left overnight to allow adherence. The VY-9 peptide at varying concentrations was then used to treat the cells for 72 h. MTT was produced as a 2.5 mg/mL solution in PBS whereupon 10 µL of this MTT solution was introduced to each well before incubating the plate for 4 h at 37 °C inside a humid 5% CO2 incubator. Following this step, the medium was removed the wells, and 200 µL of DMSO was added in its place. Finally, a microplate reader was employed to measure the absorbance for each of the wells at 540 nm, while arbutin (0.2 mM) served as the positive control. Each test was carried out in triplicate, with the findings presented in the form of mean ± standard deviation.

Tyr [2] = test: qRT-PCR, Tyr mRNA; assay type: cell-based, mouse; conditions: B16F10, 48 h
Experimental: A 6-well plate was used to seed B16F10 cells at 1 × 10^5 cells per well prior to overnight incubation in a 5% CO2 humid atmosphere at 37°C. […] Harvesting was conducted via removal of the supernatant, and the cells were rinsed twice in PBS (phosphate-buffered saline). The PureLink™RNA Mini Kit (Invitrogen™, USA) was then used to extract total RNA in line with the guidance of the manufacturer. RNA concentration was assessed at 260 nm with a NanoDrop 2000 UV-Vis spectrophotometer (Thermo Fisher Scientific, Inc.). Oligo-dT primers and a Precision nanoScript II Reverse Transcription Kit (PrimerDesign, Camberley, UK) were used to perform the reverse transcription of 1 µg of total RNA to cDNA in line with the guidance of the manufacturer. MyGo Pro®Real time PCR apparatus (IT-IS International Ltd., Stokesley, UK) was then used to perform the qRT-PCR assays in which 20 µL of PCR reaction contained 1 µL of cDNA, 7 µL of ultrapure water, 1 µL of each primer […], and 10 µL of 2×qPCRBIO SyGreen Mix (PCR Biosystems Ltd, London, UK). […] The relative gene expression level could then be calculated via the cycle threshold (Ct) value, while the role of endogenous control for data normalization was occupied by Gapdh (the housekeeping gene). […]

Q: With “VDGYPAAGY [VY-9, Val-Asp-Gly-Tyr-Pro-Ala- Ala-Gly-Tyr]” as the sequence, how does the “TYR protein expression vs control” value (Tyr [1]; 1.6 µM) read?
A: The value was “the expression of all proteins decreased compared to the control”.

Q: And the “concentration from which TYR protein expression decreased” value (Tyr [1]; western blot)?
A: The value was 0.4 µM.

Q: What about the “inhibition type, mono-phenolase” value (mushroom TYR) of the same sequence?
A: Its value is “competitive inhibitor”.

Q: What about the “cytotoxicity in B16F10 cells” value (B16F10 melanoma cells; 0 to 1.6 µM (abstract: 0.2–1.6 µM)) of the same sequence?
A: Its value is “negligible cytotoxicity; also recorded: no clear signs of cytotoxicity”.

Q: What about the B16F10 cell viability (B16F10 melanoma cells; 0 to 1.6 µM, triplicate) of the same sequence?
A: The B16F10 cell viability was over 50%.

Q: What about the “Tyr mRNA expression vs control” value (Tyr [2]; 1.6 µM) of the same sequence?
A: Its value is “significantly reduced the expression levels of all measured genes”.

Q: And the “concentration from which Tyr mRNA expression decreased” value (Tyr [2]; vs control)?
A: Its value is 0.4 µM.
